The values below come from patent publication US5010076A, “1,7-fused 1H-indole-2-carboxylic acid-N-(1,4-benzodiazepin-3-yl)amides” (Kali-Chemie Pharma GmbH, priority 1989, dated 1991).

Data set [1] concerns the target T1, peripheral CCK receptors (pancreas) (Rattus norvegicus, UniProt P30551).
T1 construct: Whole pancreas glands from male Wistar rats with a body weight of 150-300 g; from tissue; host or cells: whole pancreas glands of male Wistar rats, washed homogenate
T1 sequence (P30551 1-444): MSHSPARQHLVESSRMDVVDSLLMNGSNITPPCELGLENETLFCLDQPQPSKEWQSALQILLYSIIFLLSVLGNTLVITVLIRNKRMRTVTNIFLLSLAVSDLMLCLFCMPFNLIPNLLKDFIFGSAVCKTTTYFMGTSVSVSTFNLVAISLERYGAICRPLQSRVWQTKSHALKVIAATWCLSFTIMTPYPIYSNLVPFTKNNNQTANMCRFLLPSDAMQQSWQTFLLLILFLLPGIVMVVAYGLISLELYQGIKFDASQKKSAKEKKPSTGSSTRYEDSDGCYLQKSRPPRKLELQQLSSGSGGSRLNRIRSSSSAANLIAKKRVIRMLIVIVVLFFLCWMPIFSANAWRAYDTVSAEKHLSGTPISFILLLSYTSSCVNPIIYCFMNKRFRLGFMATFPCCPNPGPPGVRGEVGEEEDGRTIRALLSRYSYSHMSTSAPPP
As to the kind of experiment: peripheral CCK receptor binding affinity on rat pancreas homogenate (inhibition of 3[H]-CCK-8 binding). More on the design: species or system rat (male Wistar). Particulars: 0.3 nM 3[H]-CCK-8, 90 min, 25° C., pH 7.4, calculated from IC50 by Cheng-Prusoff; for Ki: read-out: In vitro binding to peripheral CCK receptors (pancreas) pKi values (converted). The procedure: The affinity of the compounds of formula I for peripheral CCK receptors was measured in vitro on rat pancreas homogenate. The inhibition of the binding of the physiologically relevant octopeptide CCK-8 to peripheral CCK receptors by the test substances was determined.
The receptor binding studies were carried out by a modification of the method of van Dijk et al. (J. Neuroscience 4 (1984), 1021-1033), using soya bean trypsin inhibitor (=SBTI) as protease inhibitor. ^3 [H]-CCK-8, code TRK 775, from Amersham Int., having a specific activity of 60-90 Ci/mmol, was used as tritium-labelled CCK-8.
Whole pancreas glands from male Wistar rats with a body weight of 150-300 g, which had been sacrificed by decapitation, were freed of fatty tissue and homogenized for 15 seconds in a 50-fold volume of an ice-cold test buffer solution (10 mmol 2-[4-(2-hydroxyethyl)-piperazin-1-yl]-ethanesulfonic acid (=HEPES), 130 mmol sodium chloride, 5 mmol magnesium chloride, 0.02% bacitracins, 0.01% SBTI, pH 7.4) with a Kinematica Polytron type homogenizer. The homogenates were then centrifuged at 48,000 g for 10 minutes. This washing method was repeated. After the last centrifugation, the residue which was obtained each time in the form of a pellet was suspended in a 550-fold volume of the test buffer solution and immediately used for the measurement.
For the binding test, 500 μl of the tissue homogenate were incubated with 50 μl of test buffer solution or 50 μl of a solution of the compound to be investigated and with 50 μl of a ^3 [H]-CCK-8 solution (final concentration 0.3 nM). The non-specific binding was assumed to be 0.1 μmol CCK-8. The incubation lasted 90 minutes at 25° C. All the compounds were measured 3 times at each of several concentrations.
Aqueous solutions were employed as test substance solutions and were prepared by appropriate dilution of 60×10^-4 molar aqueous stock solutions. Test substances which are sparingly soluble in water were first dissolved in 96% ethanol, and this solution was diluted with sufficient water for the ethanol concentration not to exceed 1.6% by volume in the solution to be tested.
Bound and free ^3 [H]-CCK-8 were separated by filtration through glass fiber filters. The filters were washed twice with 3 ml of HEPES solution each time and then placed in the scintillation solution (SAVE scintillation solution from Packard) in the dark overnight and counted in a Packard TriCarb 1500™liquid scintillation counter. The IC50 of the respective test substance was determined to be that concentration which caused a 50% inhibition of the specific binding of tritiated CCK-8 to the receptors. From this, the corresponding pKi value was calculated using the Cheng-Prusoff equation. […]

For data set [2], the system named is CCK-induced disturbance of stomach emptying. Nature of the data set: effect of test substances on CCK-induced disturbances of emptying of the stomach (charcoal transport into duodenum). In kind it is in vivo, mouse (female NMRI). The procedure:
Doses of CCK lead to substantial blockade of the transpyloric transport of chyme from the stomach into the duodenum. The ability of the test substances to eliminate this blocking effect of CCK was investigated.
Female NMRI mice having body weights of 20-25 g were used in groups of ten animals each. […] A control group received only the Tylose® solution or the solution containing the solubilizer polyethylene glycol in each case. 60 minutes later the animals were given a subcutaneous injection of 80 Ig/kg CCK-8. After a further 5 minutes the animals were each orally administered 0.3 ml of a charcoal suspension (5% charcoal in 2% strength Tylose solution). The mice were sacrificed 5 minutes later and subsequently dissected. They were examined to find whether charcoal suspension had advanced into the duodenum.
The percentage of animals in which the CCK effect was eliminated and charcoal suspension was found in the duodenum after administration of the test substances was determined.

Data set [3] has as its system CCK-induced gallbladder emptying. As to the kind of experiment: inhibitory effect of test substances on CCK-induced gallbladder emptying (gallbladder weight). In kind it is in vivo, mouse (female NMRI). On the procedure: CCK causes a contraction of the muscles of the gallbladder and thus an emptying of the gallbladder. […] Intraperitoneal doses of 0.1 μg/kg CCK-8 may result in the weight of the gallbladders decreasing to about 1/10 of the original weight.
Female NMRI mice having a body weights of 20-25 g were used in groups of 10 animals each. After withdrawal of feed for 24 hours (drinking water ad libitum) the animals received an oral dose of the test substance suspended in a volume of 10 ml/kg of body weight of a 1% strength Tylose® solution (=methylcellulose) or in a volume of 10 ml/kg of body weight of a solubilizer solution which contained 5% glycerol, 87% polyethylene glycol 400, and 8% water. Two control groups each received only the Tylose® solution or the solution containing the solubilizer polyethylene glycol. One of the control groups and all the animals treated with test substance received 0.1 Ig/kg CCK-8 injected i.p. 60 minutes later.
The mice were sacrificed 5 minutes after the CCK-8 administration, and the gallbladders were excised and weighed.
The following Table C lists the percentage inhibition of the CCK-8 effect on gallbladder weights caused by the test substances.

A short description of data set [4]: determination of the minimum toxic dose. It is filed as in vivo, mouse (male). Conditions: mouse. On the procedure:
Male mice weighing 20-25 g were given maximum oral doses of 300 mg/kg of the test substance. The animals were observed carefully for three hours for symptoms of toxicity. In addition, all symptoms and deaths were recorded for a period of 24 hours after administration. Concomitant symptoms were likewise observed and recorded. If death or serious symptoms of toxicity were observed, further mice were given increasingly lower doses. The lowest dose which caused death or serious symptoms of toxicity is indicated in the following Table A as the minimum toxic dose.

Where [5] appears, read: dose 10 μmol/kg mouse oral, CCK-8 s.c. 60 min later.
Where [6] appears, read: dose 1.0 μmol/kg mouse oral, CCK-8 s.c. 60 min later.
[7] abbreviates: oral, lowest dose causing death or serious symptoms of toxicity, max 300 mg/kg, 24 h.
Setting [8] is: dose 1.0* μmol/kg mouse oral, * = administered in solution containing solubilizer (PEG 400).

No end group written: not given here.

Consider `COc1ccc2c(c1)N(C)C(=O)C(NC(=O)c1cc3cccc4c3n1CCC4)N=C2c1ccccc1` (single isomer, unassigned; (+)) [Example 2b, (+)-3-[(4H-pyrrolo[3,2,1-ij]-5,6-dihydroquinoline-2-carbonyl)-amino]-8-methoxy-1-methyl-2-oxo-5-phenyl-1H-2,3-dihydro-1,4-benzodiazepine], for which the Ki in data set [1] was 19.5 nM. The “% of Animals in which the CCK Effect was Eliminated” value (from here on “% of Animals”) in data set [2] (setting [5]) turned out to be 70%. For the same compound, in data set [3] (dose 46 μmol/kg mouse oral, CCK-8 i.p. 60 min later), the “% Inhibition of CCK-induced Gallbladder Emptying” value is given as 8.3%.

Turning to `CN1C(=O)C(NC(=O)c2cc3cccc4c3n2CCC4)N=C(C2CCCCC2)c2ccccc21` (stereo not shown) [Example 4, 3-[(4H-pyrrolo[3,2,1-ij]-5,6-dihydroquinoline-2-carbonyl)-amino]-1-methyl-2-oxo-5-cyclohexyl-1H-2,3-dihydro-1,4-benzodiazepine], the Ki in data set [1] is 2.51 nM. This compound registered a Minimum toxic dose in data set [4] (in vivo, 1440 min) of over 300 mg/kg. The “% of Animals” value in data set [2] (setting [6]) is 45%.

For the compound `CN1C(=O)C(NC(=O)c2cc3cc(F)cc4c3n2CCC4)N=C(c2ccccc2)c2ccccc21` (stereo not shown) [Example 5, 3-[(8-fluoro-4H-pyrrolo[3,2,1-ij]-5,6-dihydroquinoline-2-carbonyl)-amino]-2-oxo-1-methyl-5-phenyl-1H-2,3-dihydro-1,4-benzodiazepine], the Ki in data set [1] was 1.45 nM. The Minimum toxic dose in data set [4] (setting [7]) is given as over 300 mg/kg. Further, in data set [2] (setting [5]), the “% of Animals” value stood at 75%.

For `Cc1ccc2c(c1)C(c1cccs1)=NC(NC(=O)c1cc3cccc4c3n1CCC4)C(=O)N2C` (stereo not shown) [Example 8, 3-[(4H-Pyrrolo[3,2,1-ij]-5,6-dihydroquinoline-2-carbonyl)-amino]-1,7-dimethyl-2-oxo-5-(2-thienyl)-1H-2,3-dihydro-1,4-benzodiazepine], the Ki in data set [1] is 9.12 nM.

Turning to `Cc1ccc2c(c1)C(c1ccccc1F)=NC(NC(=O)c1cc3cccc4c3n1CCC4)C(=O)N2C` (stereo not shown) [Example 10], in data set [1], the “In vitro binding to peripheral CCK receptors (pancreas) pKi values” is 8.75. This compound yielded a Minimum toxic dose in data set [4] (setting [7]) of 300 mg/kg. Besides, in data set [2] (dose 0.1 μmol/kg mouse oral, CCK-8 s.c. 60 min later), the “% of Animals” value is on record as 40%.

Regarding `CN1C(=O)C(NC(=O)c2cc3cccc4c3n2CCC4)N=C(c2ccc(F)cc2F)c2ccccc21` (stereo not shown) [Example 11], the Ki in data set [1] was 2.4 nM. In addition, in data set [4] (setting [7]), the Minimum toxic dose was 300 mg/kg.

For the compound `COc1ccc2c(c1)N(C)C(=O)C(NC(=O)c1cc3cccc4c3n1CCC4)N=C2c1c(F)cccc1F` (stereo not shown) [Example 13], in data set [1], the Ki is 1 nM. The compound further gave a Minimum toxic dose in data set [4] (setting [7]) of over 300 mg/kg. Moreover, the “% of Animals” value in data set [2] (setting [5]) was 83%; in data set [2] (setting [8]), 100%.

As for `COc1ccc2c(c1)N(C)C(=O)C(NC(=O)c1cc3cccc4c3n1CCC4)N=C2c1c(F)cccc1OCCC(C)C` (stereo not shown) [Example 17], the Ki in data set [1] is 10 nM. In addition, the “% of Animals” value in data set [2] (setting [8]) is 50%.

`Cc1ccc2c(c1)C(c1ccccc1)=NC(NC(=O)c1cc3cccc4c3n1CCC4)C(=O)N2C` (stereo not shown) [Example 18]: the Ki in data set [1] is 1.17 nM. In data set [4] (setting [7]), this compound returned a Minimum toxic dose of over 300 mg/kg.

Regarding `CN1C(=O)C(NC(=O)c2cc3cccc4c3n2CCC4)N=C(c2ccccc2F)c2ccccc21` (stereo not shown) [Example 22], the Ki in data set [1] was 0.912 nM. Moreover, in data set [4] (setting [7]), the Minimum toxic dose is given as over 300 mg/kg.

As to `O=C(NC1N=C(c2ccccc2)c2ccccc2N(CC2CC2)C1=O)c1cc2cccc3c2n1CCC3` (stereo not shown) [Example 23], the Ki in data set [1] was 10 nM. In data set [4] (setting [7]), this compound had a Minimum toxic dose of over 300 mg/kg.

With `CC(C)N1C(=O)C(NC(=O)c2cc3cccc4c3n2CCC4)N=C(c2ccccc2)c2ccccc21` (stereo not shown) [Example 25], the Ki in data set [1] is 24 nM. The Minimum toxic dose in data set [4] (setting [7]) is over 300 mg/kg.

`CN1C(=O)C(NC(=O)c2cc3cc(F)cc4c3n2CCC4)N=C(c2ccccc2)c2cc(Cl)ccc21` (stereo not shown) [Example 26]: in data set [1], the Ki was 6.17 nM.

For `Cc1ccc2c(c1)C(c1ccc(Cl)c(Cl)c1)=NC(NC(=O)c1cc3cccc4c3n1CCC4)C(=O)N2C` (stereo not shown) [Example 27], the “% of Animals” value in data set [2] (setting [6]) is 40%.

For the compound `Cc1ccc(C2=NC(NC(=O)c3cc4cccc5c4n3CCC5)C(=O)N(C)c3ccccc32)cc1` (stereo not shown) [Example 30], in data set [1], the Ki is 2.34 nM. The same compound came in with a Minimum toxic dose in data set [4] (setting [7]) of 300 mg/kg.

For `CN1C(=O)C(NC(=O)c2cc3cccc4c3n2CCO4)N=C(c2ccccc2)c2ccccc21` (stereo not shown) [Example 37], the Ki in data set [1] was 0.646 nM.

On to `CN1C(=O)C(NC(=O)c2cc3cccc4c3n2CCS4)N=C(c2ccccc2)c2ccccc21` (stereo not shown) [Example 38], for which the Ki in data set [1] is 0.977 nM.

As for “CCK-8: the octapeptide CCK-8 is the smallest unit with the complete spectrum of CCK effects (DYMGWMDF; ends and bridges not checked; UniProt P06307 96-103, looked up) [reference compound]”, in data set [2] (control animals which received a dose of CCK (80 Ig/kg CCK-8 subcutaneous), no test substance), the “animals with traces of charcoal suspension in the duodenum” value is “not more than 5%”. In data set [3] (intraperitoneal 0.1 μg/kg CCK-8), the “weight of the gallbladders decreasing to fraction of the original weight” value is “about 1/10”.
